We go through seven compounds from US20090247559A1 (Exelixis, Inc., priority 2007, published 2009).

Molecules are shown by their SMILES. Structures can show the parent of a compound that is named as a salt. Where two headings read alike, the source gives them in different places.

Test [1] has as its target PIM (PIM-1, PIM-2, and/or PIM-3). Nature of the test: PIM-1, PIM-2 and PIM-3 inhibition, biochemical chemiluminescence assays (Kinase Glo, IC50 determination). Conditions: Table 1 activity class; PIM refers to PIM-1, PIM-2, and/or PIM-3; read-out: PIM IC50 (Activity B).
In another test the target is CDC7 (Homo sapiens, UniProt O00311). The test is described as follows: CDC7 inhibition, biochemical chemiluminescence assay (Kinase Glo, IC50 determination). The procedure, abridged: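 CDC7 enzyme preincubated with compound 10 min at ambient temperature, then ATP mix in Tris Base added; reaction 90 min at 24-27 °C. Remaining ATP quantified by Kinase Glo luminescence to give IC50.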
Sequence of CDC7 (O00311 whole entry): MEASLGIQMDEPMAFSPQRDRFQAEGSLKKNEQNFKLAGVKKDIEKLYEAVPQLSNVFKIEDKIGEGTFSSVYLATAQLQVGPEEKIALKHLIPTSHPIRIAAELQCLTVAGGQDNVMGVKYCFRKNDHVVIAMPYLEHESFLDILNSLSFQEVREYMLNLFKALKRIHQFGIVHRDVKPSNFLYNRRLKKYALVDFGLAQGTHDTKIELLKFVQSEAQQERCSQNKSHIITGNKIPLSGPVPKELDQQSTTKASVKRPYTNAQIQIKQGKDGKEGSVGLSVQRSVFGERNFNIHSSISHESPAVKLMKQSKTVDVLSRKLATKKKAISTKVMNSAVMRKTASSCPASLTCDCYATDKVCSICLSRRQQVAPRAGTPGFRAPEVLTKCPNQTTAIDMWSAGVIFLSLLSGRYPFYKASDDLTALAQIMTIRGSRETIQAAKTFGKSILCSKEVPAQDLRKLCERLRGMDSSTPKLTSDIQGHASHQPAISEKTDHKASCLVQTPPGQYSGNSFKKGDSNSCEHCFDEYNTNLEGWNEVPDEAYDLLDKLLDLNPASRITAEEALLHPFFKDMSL
Sequence of CDC7 (Q9UBU7 whole entry partner): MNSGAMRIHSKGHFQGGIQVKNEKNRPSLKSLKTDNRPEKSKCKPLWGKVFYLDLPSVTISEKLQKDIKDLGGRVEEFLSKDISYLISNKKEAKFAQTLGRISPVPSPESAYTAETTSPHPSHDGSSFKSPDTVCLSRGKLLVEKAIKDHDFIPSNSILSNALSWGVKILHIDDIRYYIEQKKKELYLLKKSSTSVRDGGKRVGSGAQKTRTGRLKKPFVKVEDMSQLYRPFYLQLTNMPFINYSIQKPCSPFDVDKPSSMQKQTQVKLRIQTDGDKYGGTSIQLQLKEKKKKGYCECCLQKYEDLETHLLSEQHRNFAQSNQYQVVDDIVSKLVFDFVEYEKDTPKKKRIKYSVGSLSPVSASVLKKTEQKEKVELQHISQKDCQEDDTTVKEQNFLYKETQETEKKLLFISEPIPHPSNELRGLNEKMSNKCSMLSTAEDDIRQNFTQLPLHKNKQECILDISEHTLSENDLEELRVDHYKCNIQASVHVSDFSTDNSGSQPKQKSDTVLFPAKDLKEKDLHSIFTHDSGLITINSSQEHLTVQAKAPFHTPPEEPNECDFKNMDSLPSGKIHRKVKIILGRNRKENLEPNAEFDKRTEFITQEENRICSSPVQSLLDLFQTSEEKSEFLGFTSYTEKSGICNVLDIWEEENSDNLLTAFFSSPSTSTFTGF
On the technique in general: Kinase-Glo reads ATP consumption through a luciferase reaction.

A further test deals with CK2 (Homo sapiens, UniProt P68400). Nature of the test: CK2 inhibition, biochemical chemiluminescence holoenzyme assay (Kinase Glo, IC50 determination). Conditions: Table 1 activity class; symbol given only if active; read-out: CK2 IC50 (Activity C). The method in brief:
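Holoenzyme CK2 assay; compounds pre-incubated with substrate and enzyme, then reacted 150 min at 24-27° C. Remaining ATP measured as luminescence with Kinase Glo, and IC50 derived from the signal.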

Setting [2] is: Table 1 activity class, symbol given only if active, read-out: CDC7 IC50 (Activity A).
[3] abbreviates: compounds in Table 1, read-out: CDC7 IC50 value.

Sequence of CK2 (P68400 whole entry): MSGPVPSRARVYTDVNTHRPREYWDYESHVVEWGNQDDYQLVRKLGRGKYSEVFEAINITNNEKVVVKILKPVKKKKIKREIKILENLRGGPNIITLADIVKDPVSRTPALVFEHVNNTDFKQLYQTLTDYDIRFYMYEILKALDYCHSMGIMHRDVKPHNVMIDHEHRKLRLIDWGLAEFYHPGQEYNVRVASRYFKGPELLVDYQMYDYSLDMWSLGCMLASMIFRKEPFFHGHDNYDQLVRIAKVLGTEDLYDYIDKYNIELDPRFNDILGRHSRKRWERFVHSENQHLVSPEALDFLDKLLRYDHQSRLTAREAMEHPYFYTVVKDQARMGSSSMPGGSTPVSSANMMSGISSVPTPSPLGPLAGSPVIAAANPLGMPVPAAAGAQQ
Sequence of CK2 (P67870 whole entry partner): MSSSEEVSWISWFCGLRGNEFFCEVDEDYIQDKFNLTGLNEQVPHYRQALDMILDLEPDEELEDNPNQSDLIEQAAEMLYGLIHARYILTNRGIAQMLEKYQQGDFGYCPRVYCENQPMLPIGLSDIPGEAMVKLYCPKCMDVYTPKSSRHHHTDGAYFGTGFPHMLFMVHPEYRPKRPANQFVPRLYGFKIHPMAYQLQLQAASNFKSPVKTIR

Consider `COc1ccc2oc3c(=O)[nH]c([C@@H]4C[C@@H](F)CN4)nc3c2c1` [Compound 532, 2-[(2S,4R)-4-fluoropyrrolidin-2-yl]-8-(methyloxy)[1]benzofuro[3,2-d]pyrimidin-4(3H)-one], for which the IC50 in test [1] was less than 10 µM; on CDC7 (setting [2]) it was less than 10 µM; at CDC7 (setting [3]) it was less than 0.1 µM; at CK2, less than 10 µM.
In the case of `C[C@H](N)c1nc2c(oc3ccc(Cl)cc32)c(=O)[nH]1` [Compound 533, 2-[(1S)-1-aminoethyl]-8-chloro[1]benzofuro[3,2-d]pyrimidin-4(3H)-one], the IC50 was less than 10 µM in test [1], less than 10 µM at CDC7 (setting [2]), less than 0.1 µM on CDC7 (setting [3]) and less than 10 µM at CK2.
In the case of `O=c1[nH]c(C2CCCCN2)nc2c1oc1ccc(Br)cc12` (stereo not drawn) [Compound 534, 8-Bromo-2-piperidin-2-yl[1]benzofuro[3,2-d]pyrimidin-4(3H)-one hydrochloride], the IC50 in test [1] is less than 10 µM; at CDC7 (setting [2]), less than 10 µM; on CDC7 (setting [3]), less than 0.1 µM; on CK2 it was less than 10 µM.
On to `NC(Cc1cccs1)c1nc2c(oc3ccc(Br)cc32)c(=O)[nH]1` (stereo not drawn) [Compound 538, 2-[1-amino-2-(2-thienyl)ethyl]-8-bromo[1]benzofuro[3,2-d]pyrimidin-4(3H)-one], for which the IC50 (in test [1]; at CDC7 (setting [2]); at CK2) was less than 10 µM each time.
As for `CC(C)[C@H](N)c1nc2c(oc3ccc(Br)cc32)c(=O)[nH]1` [Compound 540, 2-[(1S)-1-amino-2-methylpropyl]-8-bromo[1]benzofuro[3,2-d]pyrimidin-4(3H)-one], the IC50 is less than 10 µM in test [1], less than 10 µM on CDC7 (setting [2]), less than 0.1 µM on CDC7 (setting [3]) and less than 10 µM on CK2.
For `NC1(c2nc3c(oc4ccc(Br)cc43)c(=O)[nH]2)CCCC1` [Compound 543, 2-(1-aminocyclopentyl)-8-bromo[1]benzofuro[3,2-d]pyrimidin-4(3H)-one], the IC50 is less than 10 µM in test [1], less than 10 µM at CDC7 (setting [2]), less than 0.1 µM at CDC7 (setting [3]) and less than 10 µM on CK2.
Consider `NC1(c2nc3c(oc4ccc(Br)cc43)c(=O)[nH]2)CCC1` [Compound 544, 2-(1-aminocyclobutyl)-8-bromo[1]benzofuro[3,2-d]pyrimidin-4(3H)-one], for which the IC50 in test [1] is less than 10 µM; at CDC7 (setting [2]) it was less than 10 µM; on CDC7 (setting [3]) it was less than 0.1 µM; at CK2 it was less than 10 µM.

A word on the IC50: it is the point on the concentration scale where inhibition reaches its midpoint.
